Data from PMC5539068, “Structural optimization and evaluation of novel 2-pyrrolidone-fused (2-oxoindolin-3-ylidene)methylpyrrole derivatives as potential VEGFR-2/PDGFRβ inhibitors” (Chemistry Central Journal, 2017).

What was measured:
HCT116 cells [1] = conditions: VEGFR-1/2 inhibitor; cited from earlier work
HUVEC cells = test: In-vitro VEGF-induced Matrigel tube formation assay; type: cell-based, human; conditions: for IC50: Homo sapiens, HUVEC, VEGF 10 ng/ml, Matrigel, 6 h, read-out: IC50 Area (in vitro tube formation)
Description: The in vitro tube formation assay was assessed using ibidi μ-Slides (15-well, ibidi GmbH, Martinsried, Germany) in accordance with manufacturer’s protocol. Briefly, growth factor reduced Matrigel (10 μl) (Sigma, St. Louis MO) was added to the inner well of ibidi μ-Slides, and incubated at 37 °C for 1 h. […] 10,000 HUVEC cells in 50 μl of above growth medium was added to Matrigel (Sigma, St. Louis MO, USA) coated ibidi μ-Slides. After 6 h of incubation at 37 °C, the supernatant was discarded, and 50 μl of serum-free medium with diluted calcein AM (6.25 μg/ml) was added to above ibidi μ-Slides. After incubation in the dark at room temperature for 30 min, the μ-Slides were washed with PBS (50 μl) and fluorescence pictures were taken at 485 nm with a Leica DM1000 LED microscope (Leica Microsystems, Wetzlar, Hessen, Germany).

[2] = Preliminary pharmacokinetic studies; conditions: no data shown
786-O cells = test: Cell proliferation assay (MTT), 786-O; conditions: Homo sapiens, 786-0, 72 h, read-out: IC50 786-O
Description: (§1) Serial dilutions of indicated compounds were added and incubated for additional 72 h. At the end of the incubation, cell viability was determined by the 3-(4,5-dimethylthiazol-2-yl)-2,5-diphenyl tetrazolium bromide (MTT) assay. The MTT formazan crystals formed were dissolved in DMSO, and the absorbance at 570 nm was recorded using a microplate spectrophotometer (Thermo Fisher Scientific, Waltham, MA, USA) [46].

HCT116 cells [3] = test: Cell proliferation assay (MTT), HCT116; conditions: Homo sapiens, HCT-116, 72 h, read-out: IC50 HCT116
Description: as §1

NCI-H460 cells = test: Cell proliferation assay (MTT), NCI-H460; conditions: Homo sapiens, NCI-H460, 72 h, read-out: IC50 NCI-H460
Description: as §1

PDGFRβ = PDGFRβ (Homo sapiens, UniProt P09619); test: In-vitro kinase assay (HotSpot, 33P), PDGFRβ
Chain of PDGFRβ (P09619 33-1106): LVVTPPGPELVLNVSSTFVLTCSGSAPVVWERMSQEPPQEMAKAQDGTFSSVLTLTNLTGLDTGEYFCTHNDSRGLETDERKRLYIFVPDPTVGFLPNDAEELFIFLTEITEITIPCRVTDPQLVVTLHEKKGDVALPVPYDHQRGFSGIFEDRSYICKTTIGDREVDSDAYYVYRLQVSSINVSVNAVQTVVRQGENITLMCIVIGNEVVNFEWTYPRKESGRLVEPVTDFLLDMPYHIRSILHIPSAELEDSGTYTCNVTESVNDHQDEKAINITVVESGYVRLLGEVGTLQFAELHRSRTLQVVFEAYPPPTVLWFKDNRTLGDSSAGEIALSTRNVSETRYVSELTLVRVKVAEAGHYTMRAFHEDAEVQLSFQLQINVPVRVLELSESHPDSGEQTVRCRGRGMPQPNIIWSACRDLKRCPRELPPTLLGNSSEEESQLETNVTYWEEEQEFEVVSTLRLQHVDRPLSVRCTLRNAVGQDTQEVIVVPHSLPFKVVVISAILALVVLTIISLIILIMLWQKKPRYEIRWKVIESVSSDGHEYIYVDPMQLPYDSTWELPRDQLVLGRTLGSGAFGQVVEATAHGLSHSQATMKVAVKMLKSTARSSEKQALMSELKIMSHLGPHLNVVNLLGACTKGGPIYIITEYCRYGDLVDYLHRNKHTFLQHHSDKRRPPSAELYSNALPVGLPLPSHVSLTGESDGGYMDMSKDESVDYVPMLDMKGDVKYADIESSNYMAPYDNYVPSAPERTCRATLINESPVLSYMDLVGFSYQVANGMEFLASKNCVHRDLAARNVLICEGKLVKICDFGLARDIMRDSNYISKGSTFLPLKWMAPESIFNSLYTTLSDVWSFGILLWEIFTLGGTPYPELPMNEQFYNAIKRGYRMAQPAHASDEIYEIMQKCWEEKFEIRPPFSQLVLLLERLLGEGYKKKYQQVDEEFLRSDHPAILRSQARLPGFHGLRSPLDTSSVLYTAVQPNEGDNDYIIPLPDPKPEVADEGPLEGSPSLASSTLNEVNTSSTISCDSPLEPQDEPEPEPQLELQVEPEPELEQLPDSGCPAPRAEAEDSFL

VEGFR-2 = VEGFR-2 (Homo sapiens, UniProt P35968); test: In-vitro kinase assay (HotSpot, 33P), VEGFR-2; conditions: for inhibition at 0.08 µM: read-out: % inhibition of VEGFR-2 at 80 nM
Chain of VEGFR-2 (P35968 20-1356): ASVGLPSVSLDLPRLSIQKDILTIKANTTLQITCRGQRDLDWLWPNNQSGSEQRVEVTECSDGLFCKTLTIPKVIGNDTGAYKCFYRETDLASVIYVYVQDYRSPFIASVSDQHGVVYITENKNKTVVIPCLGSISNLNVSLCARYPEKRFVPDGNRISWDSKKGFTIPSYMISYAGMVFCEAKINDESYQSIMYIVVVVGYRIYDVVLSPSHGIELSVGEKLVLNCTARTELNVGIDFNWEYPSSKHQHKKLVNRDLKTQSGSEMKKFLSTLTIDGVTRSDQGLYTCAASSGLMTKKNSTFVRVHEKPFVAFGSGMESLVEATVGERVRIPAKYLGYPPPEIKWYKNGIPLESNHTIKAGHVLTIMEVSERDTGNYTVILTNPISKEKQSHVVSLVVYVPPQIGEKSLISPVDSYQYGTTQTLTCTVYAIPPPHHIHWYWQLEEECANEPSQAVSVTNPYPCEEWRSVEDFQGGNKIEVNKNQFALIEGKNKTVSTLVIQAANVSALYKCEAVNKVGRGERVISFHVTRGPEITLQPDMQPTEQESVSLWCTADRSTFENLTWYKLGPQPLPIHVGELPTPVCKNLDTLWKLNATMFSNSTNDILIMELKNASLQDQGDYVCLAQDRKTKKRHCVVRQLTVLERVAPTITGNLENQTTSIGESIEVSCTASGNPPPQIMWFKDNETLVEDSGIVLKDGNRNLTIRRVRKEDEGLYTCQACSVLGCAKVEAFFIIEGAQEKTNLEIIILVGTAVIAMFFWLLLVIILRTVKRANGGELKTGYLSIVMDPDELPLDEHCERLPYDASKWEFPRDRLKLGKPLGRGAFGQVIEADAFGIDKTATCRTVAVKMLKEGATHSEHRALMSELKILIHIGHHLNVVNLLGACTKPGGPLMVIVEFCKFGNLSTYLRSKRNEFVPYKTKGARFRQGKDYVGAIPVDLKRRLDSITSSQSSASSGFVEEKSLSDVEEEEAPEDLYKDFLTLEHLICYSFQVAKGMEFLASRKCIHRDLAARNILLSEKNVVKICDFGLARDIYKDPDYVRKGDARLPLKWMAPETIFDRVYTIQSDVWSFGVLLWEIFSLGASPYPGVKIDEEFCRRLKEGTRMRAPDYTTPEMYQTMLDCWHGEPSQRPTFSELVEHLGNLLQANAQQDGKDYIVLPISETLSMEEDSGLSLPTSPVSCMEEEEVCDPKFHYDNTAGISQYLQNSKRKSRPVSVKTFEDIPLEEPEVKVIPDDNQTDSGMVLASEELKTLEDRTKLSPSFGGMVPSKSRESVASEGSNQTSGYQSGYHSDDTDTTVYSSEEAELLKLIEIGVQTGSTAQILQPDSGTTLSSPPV
Description: Next, the VEGFR-2 phosphorylation inhibitory activities of the newly synthesized compounds were evaluated.
(§2) Briefly, specific kinase and substrate and required cofactors were prepared in reaction buffer. Test compounds were added to the reaction and after 20 min a mixture of ATP (Sigma, St. Louis MO, USA) and ^33P ATP (Perkin Elmer, Waltham MA, USA) was added to make a final concentration of 10.0 μM. Reactions were stood at room temperature for 120 min, and then the reactions were spotted onto a P81 ion exchange filter paper (Whatman Inc., Piscataway, NJ, USA). Unbound phosphate was removed by extensive washing of filters in 0.1% phosphoric acid. Kinase activity data was reported as the percent remaining kinase activity in test compounds compared to the solvent control dimethyl sulfoxide (DMSO).

HCT116 cells [4] = test: Cell cycle analysis by image cytometry (DAPI); conditions: 3.0 μM, 24 h; preliminary
Description: Cell cycle profiles of HCT116 cells were determined with an NC-3000 image cytometer (ChemoMetec, Allerod, Denmark) in accordance with manufacturer’s protocol. Briefly, cells were seeded at 200,000 cells/well on a 6-well plate for 24 h. […] After incubation for 24 h, 100,000 cells were harvested and centrifuged at 400 g at room temperature for 5 min, washed once with PBS (50 μM), and resuspended in lysis buffer (50 μl) (ChemoMetec, Allerod, Denmark) containing 10 μg/ml of 2-(4-amidinophenyl)-1H-indole-6-carboxamidine (DAPI, ChemoMetec, Allerod, Denmark). […] The cellular fluorescence was measured with an NC-3000 image cytometer using NC-SlideA8 (ChemoMetec, Allerod, Denmark). The NC-3000 software (ChemoMetec, Allerod, Denmark) was used for image acquisition, image analysis and quantification, and data visualization.

Aurora A = molecular target: T1, Aurora A (Homo sapiens, UniProt O14965); test: In-vitro kinase assay (HotSpot, 33P), Aurora A; conditions: ATP 10.0 μM; for inhibition at 1 µM: read-out: % inhibition of Aurora A at 1.0 μM, 1.0 μM compound
T1 sequence (O14965 1-403): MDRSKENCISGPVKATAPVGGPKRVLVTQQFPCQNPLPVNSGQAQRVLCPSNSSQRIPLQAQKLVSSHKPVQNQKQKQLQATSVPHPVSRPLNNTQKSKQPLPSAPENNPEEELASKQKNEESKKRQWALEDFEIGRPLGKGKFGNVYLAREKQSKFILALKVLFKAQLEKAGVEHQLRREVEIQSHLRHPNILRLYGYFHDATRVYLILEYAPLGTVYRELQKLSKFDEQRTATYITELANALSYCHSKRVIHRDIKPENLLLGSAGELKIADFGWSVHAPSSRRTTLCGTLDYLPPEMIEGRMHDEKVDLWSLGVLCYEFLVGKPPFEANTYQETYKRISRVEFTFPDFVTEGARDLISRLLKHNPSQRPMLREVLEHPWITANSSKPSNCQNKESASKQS
Description: as §2

Detroit 551 cells = test: Cell proliferation assay (MTT), normal fibroblast Detroit 551; conditions: Homo sapiens, Detroit 551, 72 h, read-out: IC50 Detroit 551
Description: as §1

[5] = system: patients with advanced colorectal cancer; design: method as in earlier work; conditions: Phase IIb, cited from earlier work

O=C(Nc1cccc(C(F)(F)F)c1)c1ccccc1NCc1ccncc1 [AAL993]
proliferation of HCT116 cells (HCT116 cells [1]): significantly decreases proliferation

CCN(CC)CCN1Cc2[nH]c(/C=C3\C(=O)Nc4ccc(O)cc43)c(C)c2C1=O [Compound 14, (Z)-3-((5-(2-(diethylamino)ethyl)-3-methyl-4-oxo-1,4,5,6-tetrahydropyrrolo[3,4-b]pyrrol-2-yl)methylene)-5-hydroxyindolin-2-one]
IC50 (HUVEC cells): 620 ± 70 nM
potency in inhibiting in vitro tube formation relative to sunitinib in terms of IC50 (HUVEC cells; versus sunitinib): roughly 2.5 fold
preliminary results in pharmacokinetic studies [2]: satisfactory
melting point: 240 to 242 °C
IC50 (786-O cells): > 10000 nM
IC50 (HCT116 cells [3]): 2830 ± 400 nM
IC50 (NCI-H460 cells): > 10000 nM
IC50 (PDGFRβ): 28.5 nM
IC50 (VEGFR-2): 25.9 nM
inhibition at 0.08 µM (VEGFR-2): 58%
cell cycle profile effect (HCT116 cells [4]): G0/G1 cell cycle arrest
inhibition at 1 µM (Aurora A): 93.6%
IC50 (Detroit 551 cells): > 10000 nM

CCN(CC)CCN1Cc2[nH]c(/C=C3\C(=O)Nc4ccc(S)cc43)c(C)c2C1=O [Compound 15, (Z)-3-((5-(2-(diethylamino)ethyl)-3-methyl-4-oxo-1,4,5,6-tetrahydropyrrolo[3,4-b]pyrrol-2-yl)methylene)-5-mercaptoindolin-2-one]
IC50 (HUVEC cells): 530 ± 110 nM
preliminary results in pharmacokinetic studies [2]: satisfactory
melting point: 257 to 260 °C
IC50 (786-O cells): > 10000 nM
IC50 (HCT116 cells [3]): 2340 ± 200 nM
IC50 (NCI-H460 cells): > 10000 nM
IC50 (PDGFRβ): 12.1 nM
IC50 (VEGFR-2): 14.6 nM
inhibition at 0.08 µM (VEGFR-2): 57%
cell cycle profile effect (HCT116 cells [4]): increase in tetraploid cells
% inhibition of Aurora A at 1.0 μM (Aurora A; 1.0 μM compound): 96.4%
inhibition at 1 µM (Aurora A): 93.6%
IC50 (Detroit 551 cells): > 10000 nM

CCN(CC)CCN1CCc2[nH]c(/C=C3\C(=O)Nc4ccc(F)cc43)c(C)c2C1=O [famitinib]
progression free survival (PFS) ([5]; compared to placebo): significantly improved progression free survival (PFS)
toxicity [5]: manageable
